Results published in US11505547B2, “Compounds” (STEP PHARMA S.A.S., priority 2017, dated 2022).

Molecular target: T1, human CTPS1 (Homo sapiens, UniProt P17812)
T1 construct: purchased Proteros biostructures GmbH
T1 sequence (P17812 1-591): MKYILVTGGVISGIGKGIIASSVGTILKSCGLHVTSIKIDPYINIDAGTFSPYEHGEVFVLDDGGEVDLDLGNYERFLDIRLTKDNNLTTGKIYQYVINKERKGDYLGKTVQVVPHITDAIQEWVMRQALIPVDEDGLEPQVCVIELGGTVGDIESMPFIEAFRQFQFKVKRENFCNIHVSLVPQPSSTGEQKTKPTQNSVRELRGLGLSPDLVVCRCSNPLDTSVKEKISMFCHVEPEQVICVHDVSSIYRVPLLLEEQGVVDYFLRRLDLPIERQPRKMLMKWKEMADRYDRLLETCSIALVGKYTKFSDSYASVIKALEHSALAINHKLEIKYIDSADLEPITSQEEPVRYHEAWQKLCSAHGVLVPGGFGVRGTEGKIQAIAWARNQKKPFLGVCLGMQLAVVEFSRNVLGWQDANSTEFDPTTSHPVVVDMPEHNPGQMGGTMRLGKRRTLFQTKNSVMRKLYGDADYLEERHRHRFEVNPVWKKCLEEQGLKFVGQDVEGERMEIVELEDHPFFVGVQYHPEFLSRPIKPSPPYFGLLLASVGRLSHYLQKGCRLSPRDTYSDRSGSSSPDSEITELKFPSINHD
Test: Human CTPS1 enzyme inhibition, ADP-Glo Max assay
Assay type: biochemical
Conditions: human full length CTPS1, read-out: CTPS1 (Human CTPS1 Enzyme Inhibition data grouped by potency range, IC50)
Experimental: Biological Example 1—Human CTPS1 Enzyme Inhibition
The enzyme inhibitory activities of compounds invented against the target of interest were determined using the ADP-Glo™ Max assay (Promega, UK). Assays for human CTPS1 were performed in 1× assay buffer containing 50 mM Tris, 10 mM MgCl2, 0.01% Tween-20, pH to 8.0 accordingly. Finally, immediately before use, L-cysteine was added to the 1× assay buffer to a final concentration of 2 mM. All reagents are from Sigma-Aldrich unless specified otherwise. Human full length active C-terminal FLAG-Hiss-tag CTPS1 (UniProtKB-P17812, CTPS[1-591]-[…]) was obtained from Proteros biostructures GmbH.
3× human CTPS1 protein was prepared in 1× assay buffer to the final working protein concentration required for the reaction. A 2 uL volume per well of 3× human CTPS1 protein was mixed with 2 uL per well of 3× test compound (compound prepared in 1× assay buffer to an appropriate final 3× compound concentration respective to the concentration response curve designed for the compounds under test) for 10 minutes at 25° C. The enzymatic reaction was then initiated by addition of a 2 uL per well volume of a pre-mixed substrate mix (UltraPure ATP from ADP-Glo™ Max kit (0.31 mM), GTP (0.034 mM), UTP (0.48 mM) and L-glutamine (0.186 mM)) and the mixture was incubated for an appropriate amount of time within the determined linear phase of the reaction at 25° C. under sealed plate conditions with constant agitation at 500 revolutions per minute (rpm). ADP-GIo™ Max reagent was added for 60 minutes (6 uL per well) and subsequently ADP-Glo™ Max development reagent was added for 60 minutes (12 uL per well) prior to signal detection in a microplate reader (EnVision® Multilabel Reader, Perkin Elmer). Following each reagent addition over the course of the assay, assay plates were pulse centrifuged for 30 seconds at 500 rpm.
In all cases, the enzyme converts ATP to ADP and the ADP-Glo™ Max reagent subsequently depletes any remaining endogenous ATP in the reaction system. The ADP-Glo™ Max detection reagent converts the ADP that has been enzymatically produced back into ATP and using ATP as a substrate together with luciferin for the enzyme luciferase, light is generated which produces a detectable luminescence. […] The percentage inhibition produced by each concentration of compound was calculated using the equation shown below: […]
Percentage inhibition was then plotted against compound concentration, and the 50% inhibitory concentration (IC50) was determined from the resultant concentration-response curve.

Compound | IC50 [nM]
CC(C)(NC(=O)c1ccc(-c2cncc(Cl)n2)cc1)c1csc(NS(=O)(=O)C2CC2)n1 [Example R52, 4-(6-chloropyrazin-2-yl)-N-(2-(2-(cyclopropanesulfonamido)thiazol-4-yl)propan-2-yl)benzamide] | < 100
Cc1cncc(-c2ccc(C(=O)NC(C)(C)c3csc(NS(=O)(=O)C4CC4)n3)cc2)n1 [Example R53, N-(2-(2-(cyclopropanesulfonamido)thiazol-4-yl)propan-2-yl)-4-(6-methylpyrazin-2-yl)benzamide] | 100 to 1000
CCOc1cncc(-c2ccc(C(=O)NC(C)(C)c3csc(NS(=O)(=O)C4CC4)n3)cc2)n1 [Example R55, N-(2-(2-(cyclopropanesulfonamido)thiazol-4-yl)propan-2-yl)-4-(6-ethoxypyrazin-2-yl)benzamide] | < 100
CC(C)Oc1cncc(-c2ccc(C(=O)NC(C)(C)c3csc(NS(=O)(=O)C4CC4)n3)cc2)n1 [Example R56, N-(2-(2-(cyclopropanesulfonamido)thiazol-4-yl)propan-2-yl)-4-(6-isopropoxypyrazin-2-yl)benzamide] | < 100
CC(C)(NC(=O)c1ccc(-c2cnccn2)cc1)c1csc(NS(=O)(=O)C2CC2)n1 [Example R58, N-(2-(2-(cyclopropanesulfonamido)thiazol-4-yl)propan-2-yl)-4-(pyrazin-2-yl)benzamide] | 100 to 1000
CCOc1cncc(-c2ccc(C(=O)NC(C)(C)c3nc(NS(=O)(=O)C4CC4)sc3C)nc2)n1 [Example R72, N-(2-(2-(cyclopropanesuIfonamido)-5-methylthiazol-4-yl)propan-2-yl)-5-(6-ethoxypyrazin-2-yl)picolinamide] | 1000 to 10000
CCOc1cncc(-c2ccc(C(=O)NC(C)(C)c3nc(NS(=O)(=O)C4CC4)sc3Cl)nc2)n1 [Example R73, N-(2-(5-chloro-2-(cyclopropanesulfonamido)thiazol-4-yl)propan-2-yl)-5-(6-ethoxypyrazin-2-yl)picolinamide] | 1000 to 10000
CCOc1cncc(-c2ccc(C(=O)NC(C)(C)c3nc(NS(=O)(=O)C4CC4)sc3C)c(F)c2)n1 [Example R74, N-(2-(2-(cyclopropanesulfonamido)-5-methylthiazol-4-yl)propan-2-yl)-4-(6-ethoxypyrazin-2-yl)-2-fluorobenzamide] | 100 to 1000
CCOc1cncc(-c2ccc(C(=O)NC(C)(C)c3nc(NS(=O)(=O)C4CC4)sc3Cl)c(F)c2)n1 [Example R75, N-(2-(5-chloro-2-(cyclopropanesulfonamido)thiazol-4-yl)propan-2-yl)-4-(6-ethoxypyrazin-2-yl)-2-fluorobenzamide] | 100 to 1000
CCOc1cncc(-c2ccc(C(=O)NC3(c4csc(NS(=O)(=O)C5CC5)n4)CC3)nc2)n1 [Example R80, N-(1-(2-(cyclopropanesulfonamido)thiazol-4-yl)cyclopropyl)-5-(6-ethoxypyrazin-2-yl)picolinamide] | < 100
O=C(NC1(c2csc(NS(=O)(=O)C3CC3)n2)CC1)c1ccc(-c2cccnc2)cc1 [Example R81, N-(1-(2-(cyclopropanesulfonamido)thiazol-4-yl)cyclopropyl)-4-(pyridin-3-yl)benzamide] | 100 to 1000
CCOc1cncc(-c2ccc(C(=O)NC3(c4csc(NS(=O)(=O)C5CC5)n4)CC3)c(F)c2)n1 [Example R82, N-(1-(2-(cyclopropanesulfonamido)thiazol-4-yl)cyclopropyl)-4-(6-ethoxypyrazin-2-yl)-2-fluorobenzamide] | < 100

Further lines, results first:

IC50 [nM] | Compound
100 to 1000 | CCOc1cncc(-c2ccc(C(=O)NC(C)(C)c3csc(NS(=O)(=O)C4CC4)n3)c(C)c2)n1 [Example R46, N-(2-(2-(cyclopropanesuIfonamido)thiazol-4-yl)propan-2-yl)-4-(6-ethoxypyrazin-2-yl)-2-methylbenzamide]
100 to 1000 | CCOc1cncc(-c2ccc(C(=O)NC(C)(C)c3csc(NS(=O)(=O)C4CC4)n3)c(C(F)(F)F)c2)n1 [Example R47, N-(2-(2-(cyclopropanesuIfonamido)thiazol-4-yl)propan-2-yl)-4-(6-ethoxypyrazin-2-yl)-2-(trifluoromethyl)benzamide]
100 to 1000 | COc1cc(-c2cncc(C(F)(F)F)n2)ccc1C(=O)NC(C)(C)c1csc(NS(=O)(=O)C2CC2)n1 [Example R48, N-(2-(2-(cyclopropanesuIfonamido)thiazol-4-yl)propan-2-yl)-2-methoxy-4-(6-(trifluoromethyl)pyrazin-2-yl)benzamide]
100 to 1000 | COc1cc(-c2cncc(Cl)n2)ccc1C(=O)NC(C)(C)c1csc(NS(=O)(=O)C2CC2)n1 [Example R49, 4-(6-chloropyrazin-2-yl)-N-(2-(2-(cyclopropanesulfonamido)thiazol-4-yl)propan-2-yl)-2-methoxybenzamide]
1000 to 10000 | COc1cc(-c2cncc(C#N)n2)ccc1C(=O)NC(C)(C)c1csc(NS(=O)(=O)C2CC2)n1 [Example R50, 4-(6-cyanopyrazin-2-yl)-N-(2-(2-(cyclopropanesulfonamido)thiazol-4-yl)propan-2-yl)-2-methoxybenzamide]
< 100 | CC(C)(NC(=O)c1ccc(-c2cncc(C(F)(F)F)n2)cc1)c1csc(NS(=O)(=O)C2CC2)n1 [Example R51, N-(2-(2-(cyclopropanesulfonamido)thiazol-4-yl)propan-2-yl)-4-(6-(trifluoromethyl)pyrazin-2-yl)benzamide]
< 100 | COc1cncc(-c2ccc(C(=O)NC(C)(C)c3csc(NS(=O)(=O)C4CC4)n3)cc2)n1 [Example R54, N-(2-(2-(cyclopropanesulfonamido)thiazol-4-yl)propan-2-yl)-4-(6-methoxypyrazin-2-yl)benzamide]
100 to 1000 | CC(C)(NC(=O)c1ccc(-c2cncc(OCC(F)(F)F)n2)cc1)c1csc(NS(=O)(=O)C2CC2)n1 [Example R57, N-(2-(2-(cyclopropanesuIfonamido)thiazol-4-yl)propan-2-yl)-4-(6-(2,2,2-trifluoroethoxy)pyrazin-2-yl)benzamide]
100 to 1000 | Cc1cc(-c2cncc(C(F)(F)F)n2)ccc1C(=O)NC(C)(C)c1nc(NS(=O)(=O)C2CC2)sc1C [Example R76, N-(2-(2-(cyclopropanesuIfonamido)-5-methylthiazol-4-yl)propan-2-yl)-2-methyl-4-(6-(trifluoromethyl)pyrazin-2-yl)benzamide]
1000 to 10000 | Cc1cc(-c2cncc(C(F)(F)F)n2)ccc1C(=O)NC(C)(C)c1nc(NS(=O)(=O)C2CC2)sc1Cl [Example R77, N-(2-(5-chloro-2-(cyclopropanesulfonamido)thiazol-4-yl)propan-2-yl)-2-methyl-4-(6-(trifluoromethyl)pyrazin-2-yl)benzamide]
100 to 1000 | Cc1sc(NS(=O)(=O)C2CC2)nc1C(C)(C)NC(=O)c1ccc(-c2cncc(C(F)(F)F)n2)cc1 [Example R78, N-(2-(2-(cyclopropanesuIfonamido)-5-methylthiazol-4-yl)propan-2-yl)-4-(6-(trifluoromethyl)pyrazin-2-yl)benzamide]
100 to 1000 | CC(C)(NC(=O)c1ccc(-c2cncc(C(F)(F)F)n2)cc1)c1nc(NS(=O)(=O)C2CC2)sc1Cl [Example R79, N-(2-(5-chloro-2-(cyclopropanesulfonamido)thiazol-4-yl)propan-2-yl)-4-(6-(trifluoromethyl)pyrazin-2-yl)benzamide]
< 100 | Cc1cc(-c2cncc(C(F)(F)F)n2)ccc1C(=O)NC1(c2csc(NS(=O)(=O)C3CC3)n2)CC1 [Example R83, N-(1-(2-(cyclopropanesulfonamido)thiazol-4-yl)cyclopropyl)-2-methyl-4-(6-(trifluoromethyl)pyrazin-2-yl)benzamide]
